Laboratory results from patent US20250204541A1, “GAS PHASE TREATMENT OF PRODUCE” (priority 2022, published 2025).

Experiments:
[1] = system: Penicillium digitatum (Pd); test: Antifungal activity of vapor against Penicillium digitatum in wounded, infected mandarins; format: in vivo; conditions: for effect on Pd infection: airtight container with fan, 18 hours, then 6 days; for infected: 125 μL, 30 minutes
[2] = system: Botrytis cinerea (Bc); test: Antifungal activity of AITC vapor against Botrytis cinerea in strawberries; format: in vivo; conditions: for strawberries infected: Example 14, ambient temperature, day 6
Description: Example 13. The antifungal activity of AITC vapor against Bc in strawberries was tested. All samples were wounded by making a 3 mm deep puncture in the skin. Samples were infected by dispensing 1000 Bc spores suspended in 10 μL of water in the wound. Samples were then incubated at ambient temperature, imaged, and assessed for mold over the following 3 days. The test group consisted of strawberries that were: uninfected and untreated; infected and untreated; and exposed for 30 minutes to the vapor of 125 μL AITC dispensed on Whatman filter paper. […] The infection rates in the initially uninfected sample indicate that the step involving the initial infection of the wound by dispensing the Bc spores may not be necessary to promote infection in the test groups.
Example 14. The antifungal activity of a range of AITC vapor concentrations against Bc in strawberries was tested. Samples were treated by exposure for 30 minutes to the vapor of a range of volumes of AITC disposed on a filter paper disc, then incubated at ambient temperature, imaged, and assessed for mold over the following 6 days. Test groups consisted of strawberries that were untreated and strawberries exposed to the vapor of 62.5 μL, 125 μL, 250 μL, and 500 μL of AITC. […] On day 6, 83% of the untreated control strawberries were infected, 100% of the 62.5 μL AITC dose strawberries were infected, 13% of the 125 μL AITC dose strawberries were infected, and 0% of the 250 and 500 μL AITC dose strawberries were infected. For strawberries incubated at room temperature, all of the AITC doses above 62.5 μL were effective at preventing mold, with doses above 125 μL substantially eliminating mold.
Example 15. The antifungal activity of AITC vapor under different exposure conditions against Bc in strawberries was tested. Test groups consisted of strawberries that were untreated and treated by exposure for 30 minutes to the vapor of 125 μL of AITC disposed on a filter paper disc. Test groups were then incubated in either open or closed containers at 4° C., imaged, and assessed for mold over the following 14 days. […] All samples were free of mold through 7 days. On day 12, 16.7% of the open air controls were infected, 29.2% of closed container controls were infected, and 0% of the AITC treated were infected. On day 14, 33.3% of the open air controls were infected, 41.7% of closed container controls were infected, 0% of the open air AITC treated were infected, and 4.2% of the closed container AITC treated were infected. For strawberries incubated at 4° C., AITC treatment was effective in reducing the incidence of mold over a two week period. While ⅓ of the open air untreated samples were infected, none of the open air AITC-treated were infected. Over 40% of the closed container controls were infected. A single strawberry was infected in the closed container AITC-treated test group.
Example 16. The antifungal activity of AITC vapor against Bc in strawberries treated with a coating agent (95 wt % glyceryl monostearate and 5 wt % sodium stearate) and exposed to vapor in clamshells was tested. Test groups consisted of strawberries that were: untreated; dipped in 40 g/L solution of the coating agent; exposed for 30 minutes to the vapor of 125 μL of AITC disposed on a filter paper disc; and dipped in 40 g/L solution of the coating agent and exposed for 30 minutes to the vapor of 125 μL of AITC disposed on a filter paper disc. Samples were treated, incubated at ambient temperature, imaged, and assessed for mold over the following 4 days. […] On day 3, 52.8% of the controls were infected, 42.1% of the coating agent were infected, 26.3% of the AITC were infected, and 9.3% of the coating agent+AITC were infected. On day 4, 88.9% of the controls were infected, 76.3% of the coating agent were infected, 71% of the AITC were infected, and 34.9% of the coating agent+AITC were infected. […] Bowl dipping in the coating solution also presented challenges for drying around the calyx.
Example 17. […]

With C=CCN=C=S [AITC, allyl isothiocyanate] the “effect on Pd infection at 50% of the minimum inhibitory concentration” value ([1]; 62.5 μL AITC vapor for 30 minutes, assessed after 6 days) was “tends to reduce the severity of infection, but not eliminate the incidence of infection”, the “effect on Pd infection” value ([1]; 62.5 μL on filter paper disc) was “reduced the severity of infection relative to the untreated group” and the “effect on Pd mold” value ([1]; 125 μL on filter paper, airtight container, 2 hour exposure, assessed after 6 days) was “substantially eliminated the mold”. For the same compound, the “effect on Pd infection” value ([1]; 500 μL on filter paper disc) was “substantially prevented the growth mold”, the infected ([1]; treated 24 hours after infection, assessed after 6 days) was 8.3% and the infected ([1]; treated 48 hours after infection, assessed after 6 days) was 25%. It also gave an infected ([1]; treated 72 hours after infection, assessed after 6 days) of 16.7%, an infected ([1]; treated 96 hours after infection, assessed after 6 days) of 81.6% and an infected ([1]; treated immediately after infection (0 hours), assessed after 6 days) of 58.3%. For the same compound, the “samples showing visible mold” value ([2]; Example 13, strawberries, 30 minutes vapor of 125 μL, after 24 hours) was “no mold was visible”, the “fraction of samples showing visible mold” value ([2]; Example 13, strawberries, 30 minutes vapor of 125 μL, after 48 hours) was “⅛” and the “fraction of samples showing visible mold” value ([2]; Example 13, strawberries, 30 minutes vapor of 125 μL, after 72 hours) was “¼”. It also gave a strawberries infected ([2]; 62.5 μL dose, 30 minutes) of 100%, a strawberries infected ([2]; 125 μL dose, 30 minutes) of 13% and a strawberries infected ([2]; 250 μL dose, 30 minutes) of 0%. For the same compound, the strawberries infected ([2]; 500 μL dose, 30 minutes) was 0%, the infected ([2]; Example 15, strawberries, 125 μL, 30 minutes, 4° C., closed container, day 14) was 4.2% and the infected ([2]; Example 15, strawberries, 125 μL, 30 minutes, 4° C., open air, day 14) was 0%. For the same compound, the infected ([2]; Example 15, strawberries, 125 μL, 30 minutes, 4° C., open or closed containers, day 12) was 0%, the “mold” value ([2]; Example 15, strawberries, 125 μL, 30 minutes, incubated at 4° C., through 7 days) was “free of mold” and the infected ([2]; Example 16, strawberries in clamshells, coating agent 40 g/L dip, AITC 125 μL 30 minutes, ambient, day 3) was 26.3%. The infected ([2]; Example 16, strawberries in clamshells, coating agent 40 g/L dip, AITC 125 μL 30 minutes, ambient, day 4) was 71%.
